Test results taken from patent publication US7105669B1, “Quinazoline derivatives” (AstraZeneca AB, priority 1999, dated 2006).

Legend:
MCF-7 cells [1] = experiment: In vitro cell proliferation assay, Assay 1 (CyQUANT cell density); type: cell-based; conditions: Homo sapiens, MCF7, 72 h, MCF-7, 3 days with compound, read-out: concentration giving 50% inhibition of cell proliferation
Description: (§1) These and other assays can be used to determine the ability of a test compound to inhibit the growth of adherent mammalian cell lines, for example the human tumour cell line MCF7.
MCF-7 (ATCC HTB-22) or other adherent cells were typically seeded at 1×10^3 cells per well (excluding the peripheral wells) in DMEM (Sigma Aldrich) without phenol red, plus 10% foetal calf serum, 1% L-glutamine and 1% penicillin/streptomycin in 96 well tissue culture treated clear plates (Costar). The following day (day 1), the media was removed from a no treatment control plate and the plate stored at −80° C. The remaining plates were dosed with compound (diluted from 10 mM stock in DMSO using DMEM (without phenol red, 10% FCS, 1% L-glutamine, 1% penicillin/streptomycin). Untreated control wells were included on each plate. After 3 days in the presence/absence of compound (day 4) the media was removed and the plates stored at −80° C. Twenty four hours later the plates were thawed at room temperature and cell density determined using the CyQUANT cell proliferation assay kit (c-7026/c-7027 Molecular Probes Inc.) according to manufacturers directions. Briefly, 200 μl of a cell lysis/dye mixture (10 μl of 20× cell lysis buffer B, 190 μl of sterile water, 0.25 μl of CYQUANT GR dye) was added to each well and the plates incubated at room temperature for 5 minutes in the dark. […]

MCF7 cells = experiment: In vitro cell cycle analysis assay (FACS, propidium iodide); type: cell-based, human; conditions: 12.76 μM, 24 hours
Procedure: This assay determines the ability of a test compound to arrest cells in specific phases of the cell cycle. Many different mammalian cell lines could be used in this assay and MCF7 cells are included here as an example. MCF-7 cells were seeded at 3×10^5 cells per T25 flask (Costar) in 5 ml DMEM (no phenol red 10% FCS, 1% L-glutamine 1% penicillin/streptomycin). Flasks were then incubated overnight in a humidified 37° C. incubator with 5% CO2. The following day 1 ml of DMEM (no phenol red 10% FCS, 1% L-glutamine 1% penicillin/streptomycin) carrying the appropriate concentration of test compound solubilised in DMSO was added to the flask. A no compound control treatments was also included (0.5% DMSO). The cells were then incubated for a defined time (usually 24 hours) with compound. After this time the media was aspirated from the cells and they were washed with 5 ml of prewarmed (37° C.) sterile PBSA, then detached from the flask by brief incubation with trypsin and followed by resuspension in 10 ml of 1% Bovine Serum Albumin (BSA, Sigma-Aldrich Co.) in sterile PBSA. The samples were then centrifuged at 2200 rpm for 10 min. The supernatant was aspirated and the cell pellet was resuspended in 200 μl of 0.1% (w/v) Tris sodium citrate, 0.0564% (w/v) NaCl, 0.03% (v/v) Nonidet NP40, [pH 7.6]. Propridium Iodide (Sigma Aldrich Co.) was added to 40 μg/ml and RNAase A (Sigma Alrich Co.) to 100 μg/ml. The cells were then incubated at 37° C. for 30 minutes. The samples were centrifuged at 2200 rpm for 10 min, the supernatant removed and the remaining pellet (nuclei) resuspended in 200 μl of sterile PBSA. […] The samples were then transferred to LPS tubes and DNA content per cell analysed by Fluorescence activated cell sorting (FACS) using a FACScan flow cytometer (Becton Dickinson). Typically 25000 events were counted and recorded using CellQuest v1.1 software (Verity Software). Cell cycle distribution of the population was calculated using Modfit software (Verity Software) and expressed as percentage of cells in G0/G1, S and G2/M phases of the cell cycle. […]

aurora2 kinase = target: T1, aurora2 kinase (Homo sapiens, UniProt O14965); experiment: In vitro aurora2 kinase inhibition test; type: biochemical
T1 construct: made in house; host or cells: Spodoptera frugiperda Sf21 insect cells (baculovirus, pFastBac HTc)
T1 sequence (O14965 1-403): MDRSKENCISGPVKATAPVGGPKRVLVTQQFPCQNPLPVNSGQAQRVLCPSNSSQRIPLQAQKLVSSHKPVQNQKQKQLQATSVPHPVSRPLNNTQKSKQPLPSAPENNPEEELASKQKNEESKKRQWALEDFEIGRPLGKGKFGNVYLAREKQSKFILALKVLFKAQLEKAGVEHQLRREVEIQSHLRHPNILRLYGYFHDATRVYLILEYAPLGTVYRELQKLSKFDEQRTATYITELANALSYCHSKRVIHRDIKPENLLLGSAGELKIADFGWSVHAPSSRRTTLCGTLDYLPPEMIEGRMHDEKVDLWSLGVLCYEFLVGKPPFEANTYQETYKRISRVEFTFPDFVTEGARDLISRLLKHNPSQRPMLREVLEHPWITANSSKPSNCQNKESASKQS

MCF-7 cells [2] = experiment: In vitro cell proliferation assay, Assay 2 (BrdU incorporation); type: cell-based; conditions: Homo sapiens, MCF7; MCF-7, 48 hours with compound, 2 hour BrdU labelling; read-out: concentration giving 50% inhibition of BrdU incorporation
Description: as §1
This assay determines the ability of a test compound to inhibit the incorporation of the thymidine analogue, 5′-bromo-2′-deoxy-uridine (BrdU) into cellular DNA. MCF-7 or other adherent cells were typically seeded at 0.8×10^4 cells per well in DMEM (Sigma Aldrich) without phenol red, plus 10% foetal calf serum, 1% L-glutamine and 1% penicillin/streptomycin (50 μl/well) in 96 well tissue culture treated 96 well plates (Costar) and allowed to adhere overnight. […] The optical density of the wells was then determined at 690 nm wavelength using a Titertek Multiscan plate reader. […]

For `COc1cc2ncnc(Nc3ccc(/C=C/C(=O)NC4CCCC(C)C4)cc3)c2cc1OC` (stereo not drawn) [Compound 18], which IC50 (MCF-7 cells [1]) is on record?
The IC50 was 6380 nM.

What about the “% Cells in G1” value (MCF7 cells) of the same compound?
Its value is 30.96%.

And the “% Cells in G2/M” value (MCF7 cells)?
The value was 49.62%.

And the “% Cells in S” value (MCF7 cells)?
The value was 19.42%.

What about the IC50 (aurora2 kinase) of the same compound?
The IC50 was 117 nM.

And the IC50 (MCF-7 cells [2])?
Its IC50 is 2470 nM.
